Laboratory results taken from patent US12187723B2 (BRISTOL-MYERS SQUIBB COMPANY, priority 2019, dated 2025).
pIC50: −log10 of the molar value.

Target: T1, human TLR8 (Homo sapiens, UniProt Q9NR97)
T1 construct: host or cells: HEK-Blue cells
T1 sequence (Q9NR97 27-1041): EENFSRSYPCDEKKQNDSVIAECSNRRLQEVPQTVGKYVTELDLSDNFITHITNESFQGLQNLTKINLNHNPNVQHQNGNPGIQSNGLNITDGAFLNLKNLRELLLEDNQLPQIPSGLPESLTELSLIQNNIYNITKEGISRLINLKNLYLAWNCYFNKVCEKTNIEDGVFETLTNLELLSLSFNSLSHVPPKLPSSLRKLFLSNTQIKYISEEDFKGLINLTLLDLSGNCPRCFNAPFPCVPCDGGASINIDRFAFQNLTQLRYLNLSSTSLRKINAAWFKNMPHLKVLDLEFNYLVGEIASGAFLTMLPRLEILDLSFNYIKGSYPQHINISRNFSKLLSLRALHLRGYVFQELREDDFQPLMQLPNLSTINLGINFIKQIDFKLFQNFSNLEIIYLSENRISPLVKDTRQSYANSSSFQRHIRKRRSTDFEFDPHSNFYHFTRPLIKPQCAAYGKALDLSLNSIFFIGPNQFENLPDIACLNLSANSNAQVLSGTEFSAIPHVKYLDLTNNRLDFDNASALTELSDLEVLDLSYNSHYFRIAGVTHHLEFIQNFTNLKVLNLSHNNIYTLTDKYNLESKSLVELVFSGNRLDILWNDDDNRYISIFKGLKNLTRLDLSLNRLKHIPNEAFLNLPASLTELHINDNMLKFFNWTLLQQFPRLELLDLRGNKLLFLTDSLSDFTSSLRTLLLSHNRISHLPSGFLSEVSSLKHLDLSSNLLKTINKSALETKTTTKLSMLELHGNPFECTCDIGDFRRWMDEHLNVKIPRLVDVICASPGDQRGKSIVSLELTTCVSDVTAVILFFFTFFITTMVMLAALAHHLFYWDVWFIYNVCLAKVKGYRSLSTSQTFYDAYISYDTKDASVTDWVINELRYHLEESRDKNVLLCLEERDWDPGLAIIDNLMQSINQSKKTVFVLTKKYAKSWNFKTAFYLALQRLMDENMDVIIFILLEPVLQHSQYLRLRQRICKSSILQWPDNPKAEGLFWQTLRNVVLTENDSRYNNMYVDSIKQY
Assay: TLR8 inhibition reporter assay (HEK-Blue SEAP)
Format: cell-based
Conditions: HEK-Blue cells overexpressing human TLR8, R848 15.9 μM, 22 hour incubation
Experimental: TLR7/8/9 Inhibition Reporter Assays
HEK-Blue™-cells (Invivogen) overexpressing human TLR7, TLR8 or TLR9 receptors were used for screening inhibitors of these receptors using an inducible SEAP (secreted embryonic alkaline phosphatase) reporter gene under the control of the IFN-β minimal promoter fused to five NF-κB and AP-1-binding sites. Briefly, cells are seeded into Greiner 384 well plates (15000 cells per well for TLR7, 20,000 for TLR8 and 25,000 for TLR9) and then treated with test compounds in DMSO to yield a final dose response concentration range of 0.05 nM-50 μM. After a 30 minute compound pre-treatment at room temperature, the cells are then stimulated with a TLR7 ligand (gardiquimod at a final concentration of 7.5 μM), TLR8 ligand (R848 at a final concentration of 15.9 μM) or TLR9 ligand (ODN2006 at a final concentration of 5 nM) to activate NF-κB and AP-1 which induce the production of SEAP. After a 22 hour incubation at 37° C., 5% CO2, SEAP levels are determined with the addition of HEK-Blue™ Detection reagent (Invivogen), a cell culture medium that allows for detection of SEAP, according to manufacturer's specifications. The percent inhibition is determined as the % reduction in the HEK-Blue signal present in wells treated with agonist plus DMSO alone compared to wells treated with a known inhibitor.

First: Cc1cc2c(cc1-c1cc(C)c3ncnn3c1)[nH]c(=O)n2[C@@H]1CCCN(C(=O)CN(C)C)C1 [Example 104, (R)-1-(1-(dimethylglycyl)piperidin-3-yl)-6-methyl-5-(8-methyl-[1,2,4]triazolo[1,5-a]pyridin-6-yl)-1,3-dihydro-2H-benzo[d]imidazol-2-one]
Second: Cc1cc2c(cc1-c1cc(C)c3ncnn3c1)[nH]c(=O)n2[C@@H]1CCCN(CC(N)=O)C1 [Example 94, (R)-2-(3-(6-methyl-5-(8-methyl-[1,2,4]triazolo[1,5-a]pyridin-6-yl)-2-oxo-2,3-dihydro-1H-benzo[d]imidazol-1-yl)piperidin-1-yl)acetamide]
The pIC50 of the first is 0.85 log units higher: 7.32 for the first, 6.47 for the second. The first is the more potent here.

First: COc1cc(-c2cc3[nH]c(=O)n([C@H]4CCCN(CC5CCOC5)C4)c3cc2C(C)C)cn2ncnc12 (stereo partly drawn) [Example 126, 6-isopropyl-5-(8-methoxy-[1,2,4]triazolo[1,5-a]pyridin-6-yl)-1-((3S)-1-((tetrahydrofuran-3-yl)methyl)piperidin-3-yl)-1,3-dihydro-2H-benzo[d]imidazol-2-one]
Second: COc1cc(-c2cc3[nH]c(=O)n([C@H]4CCCN(CC5CCC5)C4)c3cc2C(C)C)cn2ncnc12 [Example 133, (S)-1-(1-(cyclobutylmethyl)piperidin-3-yl)-6-isopropyl-5-(8-methoxy-[1,2,4]triazolo[1,5-a]pyridin-6-yl)-1,3-dihydro-2H-benzo[d]imidazol-2-one]
The pIC50 of the first is 0.21 log units higher: 8.44 for the first, 8.23 for the second.

Going from COc1cc(-c2cc3[nH]c(=O)n([C@@H]4CCCN(CC(C)(C)C)C4)c3cc2C(F)(F)F)cn2ncnc12 [Example 116, (R)-5-(8-methoxy-[1,2,4]triazolo[1,5-a]pyridin-6-yl)-1-(1-neopentylpiperidin-3-yl)-6-(trifluoromethyl)-1,3-dihydro-2H-benzo[d]imidazol-2-one] to COc1cc(-c2cc3[nH]c(=O)n([C@@H]4CCCN(CC(C)(C)C)C4)c3cc2C(C)C)cn2ncnc12 [Example 153, (R)-6-isopropyl-5-(8-methoxy-[1,2,4]triazolo[1,5-a]pyridin-6-yl)-1-(1-neopentylpiperidin-3-yl)-1,3-dihydro-2H-benzo[d]imidazol-2-one], the pIC50 rises from 7.24 to 8.64 (1.40 log units). The second is the more potent here.

CCCN1CCC[C@@H](n2c(=O)[nH]c3cc(-c4cn5ncnc5c(C)c4C)c(C(C)C)cc32)C1 [Example 150, (R)-5-(7,8-dimethyl-[1,2,4]triazolo[1,5-a]pyridin-6-yl)-6-isopropyl-1-(1-propylpiperidin-3-yl)-1,3-dihydro-2H-benzo[d]imidazol-2-one] and Cc1c(-c2cc3[nH]c(=O)n([C@@H]4CCCN(CC5CCOCC5)C4)c3cc2C(C)C)cn2ncnc2c1C [Example 149, (R)-5-(7,8-dimethyl-[1,2,4]triazolo[1,5-a]pyridin-6-yl)-6-isopropyl-1-(1-((tetrahydro-2H-pyran-4-yl)methyl)piperidin-3-yl)-1,3-dihydro-2H-benzo[d]imidazol-2-one] are within 0.2 log units of each other in pIC50: 8.37 for the first, 8.34 for the second.

COc1cc(-c2cc3[nH]c(=O)n(C4CCN(CC5CCOCC5)CC4)c3cc2C(C)C)cn2ncnc12 [Example 159, 6-isopropyl-5-(8-methoxy-[1,2,4]triazolo[1,5-a]pyridin-6-yl)-1-(1-((tetrahydro-2H-pyran-4-yl)methyl)piperidin-4-yl)-1,3-dihydro-2H-benzo[d]imidazol-2-one] and COc1cc(-c2cc3[nH]c(=O)n(C4CCN(CC5CC5)CC4)c3cc2C(C)C)cn2ncnc12 [Example 161, 1-(1-(cyclopropylmethyl)piperidin-4-yl)-6-isopropyl-5-(8-methoxy-[1,2,4]triazolo[1,5-a]pyridin-6-yl)-1,3-dihydro-2H-benzo[d]imidazol-2-one] are within 0.2 log units of each other in pIC50: 8.34 for the first, 8.22 for the second.

COc1cc(-c2cc3[nH]c(=O)n([C@H]4CCCN(C)C4)c3cc2C(C)C)cn2ncnc12 [Example 119, (S)-6-isopropyl-5-(8-methoxy-[1,2,4]triazolo[1,5-a]pyridin-6-yl)-1-(1-methylpiperidin-3-yl)-1,3-dihydro-2H-benzo[d]imidazol-2-one] and CCN1CCC[C@@H](n2c(=O)[nH]c3cc(-c4cc(OC)c5ncnn5c4)c(C(C)C)cc32)C1 [Example 138, (R)-1-(1-ethylpiperidin-3-yl)-6-isopropyl-5-(8-methoxy-[1,2,4]triazolo[1,5-a]pyridin-6-yl)-1,3-dihydro-2H-benzo[d]imidazol-2-one] are within 0.2 log units of each other in pIC50: 8.63 for the first, 8.58 for the second.

COc1cc(-c2cc3[nH]c(=O)n([C@H]4CCCN(CCC(C)C)C4)c3cc2C(C)C)cn2ncnc12 [Example 132, (S)-1-(1-isopentylpiperidin-3-yl)-6-isopropyl-5-(8-methoxy-[1,2,4]triazolo[1,5-a]pyridin-6-yl)-1,3-dihydro-2H-benzo[d]imidazol-2-one] and COc1cc(-c2cc3[nH]c(=O)n(C4CCN(CC(C)C)CC4)c3cc2C(C)C)cn2ncnc12 [Example 164, 1-(1-isobutylpiperidin-4-yl)-6-isopropyl-5-(8-methoxy-[1,2,4]triazolo[1,5-a]pyridin-6-yl)-1,3-dihydro-2H-benzo[d]imidazol-2-one] are within 0.2 log units of each other in pIC50: 8.00 for the first, 8.01 for the second.

COc1cc(-c2cc3[nH]c(=O)n(C4CCN(C5COC5)CC4)c3cc2C(C)C)cn2ncnc12 [Example 157, 6-isopropyl-5-(8-methoxy-[1,2,4]triazolo[1,5-a]pyridin-6-yl)-1-(1-(oxetan-3-yl)piperidin-4-yl)-1,3-dihydro-2H-benzo[d]imidazol-2-one] and CCC(CC)CN1CCC(n2c(=O)[nH]c3cc(-c4cc(OC)c5ncnn5c4)c(C(C)C)cc32)CC1 [Example 165, 1-(1-(2-ethylbutyl)piperidin-4-yl)-6-isopropyl-5-(8-methoxy-[1,2,4]triazolo[1,5-a]pyridin-6-yl)-1,3-dihydro-2H-benzo[d]imidazol-2-one] are within 0.2 log units of each other in pIC50: 8.27 for the first, 8.15 for the second.

COCCN1CCC[C@@H](n2c(=O)[nH]c3cc(-c4cc(C)c5ncnn5c4)c(C)cc32)C1 [Example 97, (R)-1-(1-(2-methoxyethyl)piperidin-3-yl)-6-methyl-5-(8-methyl-[1,2,4]triazolo[1,5-a]pyridin-6-yl)-1,3-dihydro-2H-benzo[d]imidazol-2-one] and Cc1cc2c(cc1-c1cc(C)c3ncnn3c1)[nH]c(=O)n2[C@@H]1CCCN(CC#N)C1 [Example 96, (R)-2-(3-(6-methyl-5-(8-methyl-[1,2,4]triazolo[1,5-a]pyridin-6-yl)-2-oxo-2,3-dihydro-1H-benzo[d]imidazol-1-yl)piperidin-1-yl)acetonitrile] are within 0.2 log units of each other in pIC50: 7.36 for the first, 7.34 for the second.

Compared with COc1cc(-c2cc3[nH]c(=O)n([C@@H]4CCCN(CC(=O)N(C)C)C4)c3cc2C)cn2ncnc12 [Example 99, (R)-2-(3-(5-(8-methoxy-[1,2,4]triazolo[1,5-a]pyridin-6-yl)-6-methyl-2-oxo-2,3-dihydro-1H-benzo[d]imidazol-1-yl)piperidin-1-yl)-N,N-dimethylacetamide], COc1cc(-c2cc3[nH]c(=O)n(C4CCN(C(=O)CN(C)C)CC4)c3cc2C)cn2ncnc12 [Example 100, 1-(1-(2-(dimethylamino)acetyl)piperidin-4-yl)-5-(8-methoxy-[1,2,4]triazolo[1,5-a]pyridin-6-yl)-6-methyl-1H-benzo[d]imidazol-2(3H)-one] is 0.31 log units higher in pIC50: 6.45 for the first, 6.76 for the second. The second is the more potent here.

In the case of Cc1cc(-c2ccc3c(c2)[nH]c(=O)n3C2CCN(C)CC2)cn2ncnc12 [Example 4, 5-(8-methyl-[1,2,4]triazolo[1,5-a]pyridin-6-yl)-1-(1-methylpiperidin-4-yl)-1,3-dihydro-2H-benzo[d]imidazol-2-one], the pIC50 was 5.89.
